Data published in US9029405B2, “5-(biphenyl-4-yl)-3-phenyl-1,2,4-oxadiazolyl derivatives as ligands on the sphingosine 1-phosphate(SIP)receptors” (Merck Serono S.A., priority 2010, dated 2015).
Structures can show the parent of a compound that is named as a salt. Where two headings read alike, the source gives them in different places.

What was measured:
[1] = molecular target: T1, S1P1 (Homo sapiens, UniProt P21453); test: Receptor binding assay, [33P]sphingosine 1-phosphate competition, membranes of CHO cells expressing S1P1
Procedure: (§1) Membranes were prepared from CHO cells expressing S1P1 or S1P3 for use in ligand binding studies. Cells were suspended in 50 mM TRIS, pH 7.4, 2 mM EDTA, 250 mM Sucrose (buffer A) and 1× Complete protease inhibitor cocktail (Roche), and disrupted at 4° C. by N2 decompression using a cell disruption bomb (Parr Instrument). Following centrifugation at 1000 RPM for 10 min at 4° C., the supernatant was diluted (2×) in buffer A and centrifuged again at 19000 RPM for 75 min at 4° C. The pellet was then suspended in 10 mM HEPES, pH 7.4, 1 mM EDTA, 250 mM Sucrose (Buffer B), and 1× Complete EDTA-free protease inhibitor cocktail and homogenized using a potter. Membranes were flash frozen in liquid N2 and stored at −80° C.
(§2) [33P]sphingosine 1-phosphate (3000 Ci/mmol; American Radiolabeled Chemicals, Inc.) was added to test compounds in 20% DMSO by competition. Membranes and WGA SPA beads (GE Healthcare) were added to give a final volume of 100 μl in 96-well plates or 50 μl in 384-well plates with assay concentrations of 30 pM or 15 pM [33P]sphingosine 1-phosphate (respectively for S1P1 or S1P3), 50 mM HEPES, pH 7.5, 5 mM MgCl2, 100 mM NaCl, 0.4% fatty acid-free BSA, 1-5 μg/well of proteins in 96-well plates vs 0.6-1 μg/well of proteins in 384-well plates and 100 μg/well of WGA SPA beads in 96-well plates vs 75 μg/well of WGA SPA beads in 384-well plates. Binding was performed for 60 min at RT on a shaker and bound radioactivity was measured on a PerkinElmer 1450 MicroBeta counter. Triplicate samples were averaged and normalized as percentage of inhibition relative to total binding (only DMSO in well) and non specific binding (1000-fold excess of unlabeled S1P). Binding data were analyzed using the GraphPad Prism program or Genedata software.
(§3) The “potency” or the “activity” of the compounds is determined by the Ki values as evaluated in one of the above described binding assay, 96 or 384 well plates.
Target sequence in this assay (P21453 whole entry, species assumed): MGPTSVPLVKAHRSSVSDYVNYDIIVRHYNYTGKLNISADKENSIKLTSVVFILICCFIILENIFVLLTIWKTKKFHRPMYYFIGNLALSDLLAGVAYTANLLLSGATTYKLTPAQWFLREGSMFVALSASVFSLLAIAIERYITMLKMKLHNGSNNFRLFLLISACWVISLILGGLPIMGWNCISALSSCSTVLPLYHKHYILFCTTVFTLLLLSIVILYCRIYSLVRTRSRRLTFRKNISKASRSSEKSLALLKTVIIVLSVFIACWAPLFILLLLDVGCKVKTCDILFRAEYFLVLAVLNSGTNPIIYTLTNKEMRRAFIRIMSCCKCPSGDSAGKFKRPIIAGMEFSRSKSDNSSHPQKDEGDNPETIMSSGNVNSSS

[2] = molecular target: S1P3 (Homo sapiens, UniProt Q99500); test: Receptor binding assay, [33P]sphingosine 1-phosphate competition, membranes of CHO cells expressing S1P3
Procedure: as §1, §2, §3

[3] = molecular target: T1, S1P1; test: S1P1 internalization assay in S1P1-U2OS cells (cell imaging); type: cell-based; set-up: host or cells: U2OS (human bone osteosarcoma epithelial cells); conditions: U2OS cells expressing S1P1-EGFP, 384-well format
Procedure: Cellular Functional Assays: Internalization of Sphinqosine-1-phosphate Receptor 1 (S1P1) in a Human Cell Line (U2OS) in a 384-Well Format Using a Cell Imaging Analysis.
The S1P1 internalization assay was performed in 384 well plates (Corning 384 black with clear bottom 3712) using S1P1-U2OS cells from BioImage (C039A), a human epithelial cell line (Human Bone Osteosarcoma Epithelial Cells). These cells expressed the human S1P1 Receptor fused to the green fluorescent protein (EGFP). A standard CMV promoter (cytomegalovirus promoter) controls the expression of S1P1-EGFP and continuous expression was maintained by addition of geneticin to the culture medium.
S1P1 Receptor desensitization induced the internalization of the membrane-localized S1P-EGFP fusion protein to endosomes, which can be monitored by cell imaging analysis.
The cells are plated in low serum medium (Dulbecco's Modified Eagle Medium (DMEM) with Glutamax-1 and high glucose, 1% Penicillin/Streptomycin, 1% Fetal Calf Serum (FCS), 0.5 mg/ml Geneticin) overnight.
The next day, S1P1-U2OS cells are incubated in 20 μl serum free medium (DMEM with Glutamax-1 and high glucose, 0.1% of fatty-acid free Bovin Serum Albumin (BSA), 10 mM, N′-2-Hydroxyethylpiperazine-N′-2 ethanesulphonic acid (HEPES) 1M) for 2 hours at 37° C./5% CO2. The cells are then treated with 4 μl compounds/agonists (6×/3% DMSO) for a total volume of 24 μl, and plates are incubated for 1 hour at 37° C./5% CO2.
S1P1-U2OS cells are fixed with 25 μl Paraformaldehyde 8% and stained with Hoechst 33345 dye (1:1000) for 20 minutes.
They were then washed 3 times with Phosphate Buffered Saline (PBS) and plates are sealed. The internalization of the receptor S1P1-EGFP is measured on Cellomics by calculating the “spot count per object” (“object” corresponds to nuclear and “spot” corresponds to S1P1-EGFP receptor). Internalization data were observed thanks to vHCS View and analyzed using Genedata® software.
Target sequence in this assay (P21453 whole entry): as the sequence (P21453 whole entry, species assumed) above

[4] = 384 well plate, read-out: S1P1 Binding Ki [M] (384 well plate)
[5] = 384 well plate, read-out: S1P3 Binding Ki [M] (384 well plate)
[6] = 96 well plate, read-out: S1P1 Binding Ki [M] (96 well plate)
[7] = 96 well plate, read-out: S1P3 Binding Ki [M] (96 well plate)

Chain of S1P3 (Q99500 whole entry, species assumed): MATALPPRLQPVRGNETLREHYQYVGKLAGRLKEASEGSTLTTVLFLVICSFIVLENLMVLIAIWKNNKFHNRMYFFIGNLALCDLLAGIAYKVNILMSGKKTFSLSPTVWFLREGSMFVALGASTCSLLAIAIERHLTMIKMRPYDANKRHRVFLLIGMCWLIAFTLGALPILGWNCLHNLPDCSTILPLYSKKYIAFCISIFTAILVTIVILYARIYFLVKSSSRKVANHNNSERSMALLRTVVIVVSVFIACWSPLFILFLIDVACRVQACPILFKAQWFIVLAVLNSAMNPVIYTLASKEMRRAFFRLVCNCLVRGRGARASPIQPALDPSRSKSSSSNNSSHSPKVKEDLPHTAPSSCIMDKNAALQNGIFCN

Compound | Ki [1, 4] [M] | Ki [2, 5] [M] | EC50 [3] [nM] | Ki [1, 6] [M] | Ki [2, 7] [M]
Cc1cc(-c2nc(-c3cccc(C(C)NCC(=O)O)c3)no2)ccc1-c1ccccc1C(F)(F)F (stereo not shown) [Example 38, N-[1-(3-{5-[2-methyl-2′-(trifluoromethyl)biphenyl-4-yl]-1,2,4-oxadiazol-3-yl}phenyl)ethyl]glycine, hydrochloride salt] | 2.84e-09 | 1.43e-06 | 77.9 |  | 
COCc1cc(-c2nc(-c3ccc([C@@H](C)NCC(=O)O)cc3)no2)ccc1-c1ccccc1C [Example 9, N-[(1R)-1-(4-{5-[2-(methoxymethyl)-2′-methylbiphenyl-4-yl]-1,2,4-oxadiazol-3-yl}phenyl)ethyl]glycine, hydrochloride salt] | 1.11e-09 | 4.94e-07 | 4.34 | 1.75e-10 | 7.7e-07
CC[C@H](NCc1ccc(-c2noc(-c3ccc(-c4ccccc4C)c(C(F)(F)F)c3)n2)cc1)C(=O)O [Example 54, (2S)-2-(4-(5-(2′-methyl-2-(trifluoromethyl)biphenyl-4-yl)-1,2,4-oxadiazol-3-yl)benzylamino)butanoic acid] | 7.95e-09 | 6.69e-06 | 39.7 |  | 
Cc1ccccc1-c1ccc(-c2nc(-c3cccc(C(C)N(C)[C@@H](C)C(=O)O)c3)no2)cc1C(F)(F)F (stereo partly shown) [Example 29, N-methyl-N-[1-(3-{5-[2′-methyl-2-(trifluoromethyl)biphenyl-4-yl]-1,2,4-oxadiazol-3-yl}phenyl)ethyl]alanine, hydrochloride salt] | 5.95e-10 | 5.84e-08 | 46 |  | 
Cc1ccccc1-c1ccc(-c2nc(-c3cccc(CCN[C@@H](C)C(=O)O)c3)no2)cc1C(F)(F)F [Example 94, (2S)-2-(3-(5-(2′-methyl-2-(trifluoromethyl)biphenyl-4-yl)-1,2,4-oxadiazol-3-yl)phenethylamino)propanoic acid] | 1.01e-09 | 7.4e-08 | 2.91 | 1.85e-10 | 
Cc1ccccc1-c1ccc(-c2nc(-c3ccc([C@H](C)N(C)CC(=O)O)cc3)no2)cc1C(F)(F)F [Example 34, N-methyl-N-[(1S)-1-(4-{5-[2′-methyl-2-(trifluoromethyl)biphenyl-4-yl]-1,2,4-oxadiazol-3-yl}phenyl)ethyl]glycine, hydrochloride salt] | 4.47e-09 | 6e-06 | 26.3 |  | 
Cc1ccccc1-c1ccc(-c2nc(-c3cccc(CCN[C@H](C(=O)O)C(C)C)c3)no2)cc1C(F)(F)F [Example 96] | 5.33e-10 | 1.78e-07 | 3.73 |  | 
Cc1ccccc1-c1ccc(-c2nc(-c3ccc(CN(C)[C@@H](C)C(=O)O)cc3)no2)cc1C(F)(F)F [Example 70] | 2.98e-09 | 7.53e-07 | 18.8 |  | 
Cc1ccccc1-c1ccc(-c2nc(-c3ccc([C@H](C)N[C@@H](C)C(=O)O)cc3)no2)cc1C(F)(F)F (racemic) [Example 26, N-[(1S)-1-(4-{5-[2′-methyl-2-(trifluoromethyl)biphenyl-4-yl]-1,2,4-oxadiazol-3-yl}phenyl)ethyl]-L-alanine, hydrochloride salt and N-[(1R)-1-(4-{5-[2′-methyl-2-(trifluoromethyl)biphenyl-4-yl]-1,2,4-oxadiazol-3-yl}phenyl)ethyl]-D-alanine, hydrochloride salt] | 2.24e-09 | 1.65e-06 | 21.6 |  | 
CCC(NCc1ccc(-c2noc(-c3ccc(-c4ccccc4C)c(C(F)(F)F)c3)n2)cc1)C(=O)O (stereo not shown) [Example 58] | 3.39e-09 | 5.22e-06 | 4.87 |  | 
Cc1ccccc1-c1ccc(-c2nc(-c3ccc(CN[C@H](C(=O)O)C(C)C)cc3)no2)cc1C(F)(F)F [Example 55] | 2.2e-09 | 8.02e-07 | 16.8 |  | 
Cc1ccccc1-c1ccc(-c2nc(-c3ccc(C(CO)NCC(=O)O)cc3)no2)cc1C(F)(F)F (stereo not shown) [Example 52, 2-(2-Hydroxy-1-(4-(5-(2′-methyl-2-(trifluoromethyl)biphenyl-4-yl)-1,2,4-oxadiazol-3-yl)phenyl)ethylamino)acetic acid] | 3.76e-09 | 1.08e-06 | 10.2 |  | 
Cc1ccccc1-c1ccc(-c2nc(-c3ccc([C@@H](C)N[C@@H](C)C(=O)O)cc3)no2)cc1C(F)(F)F [Example 19, N-[(1R)-1-(4-{5-[2′-methyl-2-(trifluoromethyl)biphenyl-4-yl]-1,2,4-oxadiazol-3-yl}phenyl)ethyl]-L-alanine, hydrochloride salt] | 3.98e-09 | 2.56e-06 | 45.6 |  | 
Cc1ccccc1-c1ccc(-c2nc(-c3ccc(CN(C)C4(C(=O)O)CCCC4)cc3)no2)cc1C(F)(F)F [Example 73] | 2.27e-09 | 5.42e-06 | 29.8 |  | 
Cc1cc(-c2nc(-c3ccc([C@@H](C)N[C@H](C)C(=O)O)cc3)no2)ccc1-c1ccccc1C(F)F [Example 2, N-[(1R)-1-(4-{5-[2′-(difluoromethyl)-2-methylbiphenyl-4-yl]-1,2,4-oxadiazol-3-yl}phenyl)ethyl]-D-alanine, hydrochloride salt] | 1.42e-09 | > 2e-05 | 10.3 | 2.8e-10 | 
Cc1ccccc1-c1ccc(-c2nc(-c3ccc(C(C)N(C)CC(=O)O)cc3)no2)cc1C(F)(F)F (stereo not shown) [Example 40, N-methyl-N-[1-(4-{5-[2′-methyl-2-(trifluoromethyl)biphenyl-4-yl]-1,2,4-oxadiazol-3-yl}phenyl)ethyl]glycine, hydrochloride salt] | 2.17e-09 | 5.32e-07 | 17.8 |  | 
Cc1ccccc1-c1ccc(-c2nc(-c3ccc(CCN[C@@H](C)C(=O)O)cc3)no2)cc1C(F)(F)F [Example 92] | 6.94e-09 | 1.24e-06 | 29.5 |  | 
COCc1cc(-c2nc(-c3ccc(CN(C)[C@@H](C)C(=O)O)c(F)c3)no2)ccc1-c1ccccc1C [Example 44, N-(2-fluoro-4-{5-[2-(methoxymethyl)-2′-methylbiphenyl-4-yl]-1,2,4-oxadiazol-3-yl}benzyl)-N-methylalanine, hydrochloride salt] | 1.58e-09 | 8.69e-07 | 6.29 |  | 
Cc1ccccc1-c1ccc(-c2nc(-c3cccc(CNC(C(=O)O)C(C)C)c3)no2)cc1C(F)(F)F (stereo not shown) [Example 79] | 1.07e-09 | 2.67e-07 | 15.1 |  | 3.32e-08
Cc1cc(-c2nc(-c3ccc([C@@H](C)NCC(=O)O)cc3)no2)ccc1-c1ccccc1C(F)F [Example 7, N-[(1R)-1-(4-{5-[2′-(difluoromethyl)-2-methylbiphenyl-4-yl]-1,2,4-oxadiazol-3-yl}phenyl)ethyl]glycine, hydrochloride salt] | 1.64e-09 | 5.24e-06 | 17.9 | 3.7e-10 | > 2e-05
Cc1ccccc1-c1ccc(-c2nc(-c3cccc(CN[C@H](C)C(=O)O)c3)no2)cc1C(F)(F)F [Example 82] | 1.01e-09 | 1.17e-07 | 25.1 |  | 
Cc1ccccc1-c1ccc(-c2nc(-c3ccc(CN(C)C(C)(CO)C(=O)O)cc3)no2)cc1C(F)(F)F (stereo not shown) [Example 75] | 5.3e-09 | 2.3e-06 | 30.2 |  | 
